From ChEMBL document CHEMBL2440076, “New triarylpyrazoles as broad-spectrum anticancer agents: design, synthesis, and biological evaluation” (Eur J Med Chem, 2013)

What was measured:
Format in all cases: functional
[1] = Growth inhibition of human NCI-ADR-RES cells assessed as cell growth at 5X10'-5 M after 48 hrs by sulforhodamine B assay; details: read-out: Activity
[2] = test system: SR; experiment: Growth inhibition of human SR cells assessed as cell growth at 5X10'-6 M after 48 hrs by sulforhodamine B assay; details: read-out: Activity
[3] = test system: CCRF-CEM; experiment: Growth inhibition of human CCRF-CEM cells assessed as cell growth at 5X10'-8 M after 48 hrs by sulforhodamine B assay; details: read-out: Activity
[4] = test system: KM12; experiment: Growth inhibition of human KM12 cells assessed as cell growth at 5X10'-5 M after 48 hrs by sulforhodamine B assay; details: KM12, 48 h, read-out: Activity
[5] = test system: SK-MEL-2; experiment: Growth inhibition of human SK-MEL-2 cells assessed as cell growth at 5X10'-7 M after 48 hrs by sulforhodamine B assay; details: SK-MEL-2, 48 h, read-out: Activity
[6] = test system: OVCAR-3; experiment: Growth inhibition of human OVCAR3 cells assessed as cell growth at 5X10'-8 M after 48 hrs by sulforhodamine B assay; details: OVCAR-3, 48 h, read-out: Activity
[7] = test system: HCT-15; experiment: Growth inhibition of human HCT15 cells assessed as cell growth at 5X10'-8 M after 48 hrs by sulforhodamine B assay; details: HCT-15, 48 h, read-out: Activity
[8] = test system: Malme-3M; experiment: Growth inhibition of human MALME-3M cells assessed as cell growth at 5X10'-6 M after 48 hrs by sulforhodamine B assay; details: read-out: Activity
[9] = test system: NCI-H322M; experiment: Growth inhibition of human NCI-H322M cells assessed as cell growth at 5X10'-9 M after 48 hrs by sulforhodamine B assay; details: read-out: Activity
[10] = test system: KM12; experiment: Growth inhibition of human KM12 cells assessed as cell growth at 5X10'-7 M after 48 hrs by sulforhodamine B assay; details: KM12, 48 h, read-out: Activity
[11] = test system: SN12C; experiment: Growth inhibition of human SN12C cells assessed as cell growth at 5X10'-7 M after 48 hrs by sulforhodamine B assay; details: read-out: Activity
[12] = test system: MDA-MB-468; experiment: Growth inhibition of human MDA-MB-468 cells assessed as cell growth at 5X10'-7 M after 48 hrs by sulforhodamine B assay; details: MDA-MB-468, 48 h, read-out: Activity
[13] = Growth inhibition of human HCC2998 cells assessed as cell growth at 5X10'-5 M after 48 hrs by sulforhodamine B assay; details: HCC 2998, 48 h, read-out: Activity
[14] = test system: SNB-75; experiment: Growth inhibition of human SNB75 cells assessed as cell growth at 5X10'-5 M after 48 hrs by sulforhodamine B assay; details: SNB-75, 48 h, read-out: Activity
[15] = test system: SF-268; experiment: Growth inhibition of human SF268 cells assessed as cell growth at 5X10'-9 M after 48 hrs by sulforhodamine B assay; details: SF-268, 48 h, read-out: Activity
[16] = test system: A498; experiment: Growth inhibition of human A498 cells assessed as cell growth at 5X10'-9 M after 48 hrs by sulforhodamine B assay; details: A498, 48 h, read-out: Activity
[17] = test system: IGROV-1; experiment: Growth inhibition of human IGROV1 cells assessed as cell growth at 5X10'-7 M after 48 hrs by sulforhodamine B assay; details: IGROV-1, 48 h, read-out: Activity
[18] = test system: SK-MEL-28; experiment: Growth inhibition of human SK-MEL-28 cells assessed as cell growth at 5X10'-8 M after 48 hrs by sulforhodamine B assay; details: SK-MEL-28, 48 h, read-out: Activity
[19] = test system: SK-MEL-5; experiment: Growth inhibition of human SK-MEL-5 cells assessed as cell growth at 5X10'-5 M after 48 hrs by sulforhodamine B assay; details: SK-MEL-5, 48 h, read-out: Activity
[20] = test system: COLO 205; experiment: Growth inhibition of human COLO205 cells assessed as cell growth at 5X10'-7 M after 48 hrs by sulforhodamine B assay; details: COLO 205, 48 h, read-out: Activity
[21] = test system: HOP-62; experiment: Growth inhibition of human HOP62 cells assessed as cell growth at 5X10'-8 M after 48 hrs by sulforhodamine B assay; details: HOP-62, 48 h, read-out: Activity
[22] = test system: RXF 393; experiment: Growth inhibition of human RXF393 cells assessed as cell growth at 5X10'-8 M after 48 hrs by sulforhodamine B assay; details: RXF 393, 48 h, read-out: Activity
[23] = test system: HT-29; experiment: Growth inhibition of human HT-29 cells assessed as cell growth at 5X10'-7 M after 48 hrs by sulforhodamine B assay; details: HT-29, 48 h, read-out: Activity
[24] = test system: SW-620; experiment: Growth inhibition of human SW620 cells assessed as cell growth at 5X10'-5 M after 48 hrs by sulforhodamine B assay; details: SW-620, 48 h, read-out: Activity
[25] = test system: MDA-MB-231; experiment: Growth inhibition of human MDA-MB-231 cells assessed as cell growth at 5X10'-7 M after 48 hrs by sulforhodamine B assay; details: MDA-MB-231, 48 h, read-out: Activity
[26] = test system: SK-OV-3; experiment: Growth inhibition of human SKOV3 cells assessed as cell growth at 5X10'-5 M after 48 hrs by sulforhodamine B assay; details: SK-OV-3, 48 h, read-out: Activity
[27] = test system: CCRF-CEM; experiment: Growth inhibition of human CCRF-CEM cells assessed as cell growth at 5X10'-7 M after 48 hrs by sulforhodamine B assay; details: read-out: Activity
[28] = test system: Malme-3M; experiment: Growth inhibition of human MALME-3M cells assessed as cell growth at 5X10'-8 M after 48 hrs by sulforhodamine B assay; details: read-out: Activity
[29] = Growth inhibition of human Hs 578T cells assessed as cell growth at 5X10'-8 M after 48 hrs by sulforhodamine B assay; details: read-out: Activity
[30] = test system: NCI-H226; experiment: Growth inhibition of human NCI-H226 cells assessed as cell growth at 5X10'-8 M after 48 hrs by sulforhodamine B assay; details: NCI-H226, 48 h, read-out: Activity
[31] = test system: SR; experiment: Growth inhibition of human SR cells assessed as cell growth at 5X10'-8 M after 48 hrs by sulforhodamine B assay; details: read-out: Activity
[32] = test system: HCT-15; experiment: Growth inhibition of human HCT15 cells assessed as cell growth at 5X10'-9 M after 48 hrs by sulforhodamine B assay; details: HCT-15, 48 h, read-out: Activity
[33] = test system: MDA-MB-435; experiment: Growth inhibition of human MDA-MB-435 cells assessed as cell growth at 5X10'-9 M after 48 hrs by sulforhodamine B assay; details: MDA-MB-435, 48 h, read-out: Activity
[34] = test system: UACC-62; experiment: Growth inhibition of human UACC62 cells assessed as cell growth at 5X10'-7 M after 48 hrs by sulforhodamine B assay; details: UACC-62, 48 h, read-out: Activity
[35] = test system: IGROV-1; experiment: Growth inhibition of human IGROV1 cells assessed as cell growth at 5X10'-5 M after 48 hrs by sulforhodamine B assay; details: IGROV-1, 48 h, read-out: Activity
[36] = test system: HCT-116; experiment: Growth inhibition of human HCT116 cells assessed as cell growth at 5X10'-9 M after 48 hrs by sulforhodamine B assay; details: HCT-116, 48 h, read-out: Activity
[37] = test system: Malme-3M; experiment: Growth inhibition of human MALME-3M cells assessed as cell growth at 5X10'-7 M after 48 hrs by sulforhodamine B assay; details: read-out: Activity

SMILES	growth at 50 µM [1] [%]	growth at 5 µM [2] [%]	growth at 0.05 µM [3] [%]	growth at 50 µM [4] [%]	growth at 0.5 µM [5] [%]	growth at 0.05 µM [6] [%]	growth at 0.05 µM [7] [%]	growth at 5 µM [8] [%]	growth at 0.005 µM [9] [%]	growth at 0.5 µM [10] [%]	growth at 0.5 µM [11] [%]	growth at 0.5 µM [12] [%]	growth at 50 µM [13] [%]	growth at 50 µM [14] [%]	growth at 0.005 µM [15] [%]	growth at 0.005 µM [16] [%]	growth at 0.5 µM [17] [%]	growth at 0.05 µM [18] [%]	growth at 50 µM [19] [%]	growth at 0.5 µM [20] [%]	further results
COc1cc(-c2nn(-c3cccc(NC(=O)Nc4ccc(Cl)c(Cl)c4)c3)cc2-c2ccncc2)ccc1Cl	-9	-26	98	-50	107	111	95	-38	104	70	82	55	-19	-15	100	87	90	95	-90	102	growth at 0.05 µM [21]: 97%; growth at 0.05 µM [22]: 94%; growth at 0.5 µM [23]: 81%; growth at 50 µM [24]: 7%; growth at 0.5 µM [25]: 66%; growth at 50 µM [26]: 6%; growth at 0.5 µM [27]: 74%; growth at 0.05 µM [28]: 109%; growth at 0.05 µM [29]: 94%; growth at 0.05 µM [30]: 92%; growth at 0.05 µM [31]: 105%; growth at 0.005 µM [32]: 95%; growth at 0.005 µM [33]: 97%; growth at 0.5 µM [34]: 75%; growth at 50 µM [35]: -26%; growth at 0.005 µM [36]: 105%; growth at 0.5 µM [37]: 82%
COc1cc(-c2nn(-c3cccc(NC(=O)c4cccc(C(F)(F)F)c4)c3)cc2-c2ccncc2)ccc1Cl	-9	-3	98	7	91	101	96	21	91	89	92	89	-17	8	94	78	86	102	-51	102	growth at 0.05 µM [21]: 97%; growth at 0.05 µM [22]: 99%; growth at 0.5 µM [23]: 86%; growth at 50 µM [24]: 19%; growth at 0.5 µM [25]: 77%; growth at 50 µM [26]: 17%; growth at 0.5 µM [27]: 88%; growth at 0.05 µM [28]: 82%; growth at 0.05 µM [29]: 91%; growth at 0.05 µM [30]: 93%; growth at 0.05 µM [31]: 98%; growth at 0.005 µM [32]: 98%; growth at 0.005 µM [33]: 96%; growth at 0.5 µM [34]: 83%; growth at 50 µM [35]: 5%; growth at 0.005 µM [36]: 99%; growth at 0.5 µM [37]: 89%
O=C(Nc1cccc(-n2cc(-c3ccncc3)c(-c3ccc(Cl)c(O)c3)n2)c1)c1ccc(N2CCOCC2)c(C(F)(F)F)c1	16	18	100	1	102	100	99	-9	100	85	97	92	4	8	90	92	112	102	-70	111	growth at 0.05 µM [21]: 101%; growth at 0.05 µM [22]: 101%; growth at 0.5 µM [23]: 102%; growth at 50 µM [24]: -31%; growth at 0.5 µM [25]: 67%; growth at 50 µM [26]: 36%; growth at 0.5 µM [27]: 81%; growth at 0.05 µM [28]: 87%; growth at 0.05 µM [29]: 87%; growth at 0.05 µM [30]: 95%; growth at 0.05 µM [31]: 99%; growth at 0.005 µM [32]: 94%; growth at 0.005 µM [33]: 93%; growth at 0.5 µM [34]: 97%; growth at 50 µM [35]: 4%; growth at 0.005 µM [36]: 99%; growth at 0.5 µM [37]: 89%
O=C(Nc1cccc(-n2cc(-c3ccncc3)c(-c3ccc(Cl)c(O)c3)n2)c1)Nc1cc(C(F)(F)F)cc(C(F)(F)F)c1	-56	-11	92	-85	101	111	93	-21	108	51	72	37	-90	-75	98	79	71	95	-94	93	growth at 0.05 µM [21]: 97%; growth at 0.05 µM [22]: 89%; growth at 0.5 µM [23]: 72%; growth at 50 µM [24]: -75%; growth at 0.5 µM [25]: 74%; growth at 50 µM [26]: -49%; growth at 0.5 µM [27]: 62%; growth at 0.05 µM [28]: 100%; growth at 0.05 µM [29]: 94%; growth at 0.05 µM [30]: 85%; growth at 0.05 µM [31]: 102%; growth at 0.005 µM [32]: 98%; growth at 0.005 µM [33]: 98%; growth at 0.5 µM [34]: 69%; growth at 50 µM [35]: -55%; growth at 0.005 µM [36]: 101%; growth at 0.5 µM [37]: 77%
COc1cc(-c2nn(-c3cccc(NC(=O)Nc4cccc(C(F)(F)F)c4)c3)cc2-c2ccncc2)ccc1Cl	-9	-24	102	-47	97	102	94	-44	89	55	80	57	-79	-30	97	92	85	100	-97	93	growth at 0.05 µM [21]: 95%; growth at 0.05 µM [22]: 101%; growth at 0.5 µM [23]: 72%; growth at 50 µM [24]: -6%; growth at 0.5 µM [25]: 73%; growth at 50 µM [26]: 2%; growth at 0.5 µM [27]: 69%; growth at 0.05 µM [28]: 87%; growth at 0.05 µM [29]: 96%; growth at 0.05 µM [30]: 96%; growth at 0.05 µM [31]: 93%; growth at 0.005 µM [32]: 100%; growth at 0.005 µM [33]: 95%; growth at 0.5 µM [34]: 74%; growth at 50 µM [35]: -43%; growth at 0.005 µM [36]: 101%; growth at 0.5 µM [37]: 94%
